Patent US20260097047A1, “Small molecule inhibitors of the ribosome biogenesis factor NVL2” (Board of Regents, The University of Texas System, priority 2023, published 2026)

System: HCT116 cells
Assay: Cell viability assay (CellTiter-Glo, 72 hours) in HCT116 human colorectal cancer cells
Type: cell-based
Conditions: Homo sapiens, HCT-116; Table 1; HCT116, 72 hours; read-out: Activity
Outline: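 Ten-point IC50 came from an asymmetric five-parameter fit of luminescence corrected to vehicle wells. ATP content was measured by CellTiter-Glo 72 h after dosing at 37 °C. Cells were seeded at 2,000/well the day before, with 0.5% DMSO in all wells.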

Row | IC50 [nM] | SMILES
1 | < 500 | CC#CCN1C(=O)c2ccccc2Sc2cc(NC(=O)N3CCC3)ccc21 [Table 1: —CH2CCMe; azetidin-1-yl; CH; CH, N-(10-(But-2-yn-1-yl)-11-oxo-10,11-dihydrodibenzo[b,f][1,4]thiazepin-7-yl) azetidine-1-carboxamide]

Same assay, conditions: Homo sapiens, HCT-116; Table 5; HCT116, 72 hours; read-out: Activity

Row | SMILES | IC50 [nM]
2 | CC#CCN1C(=O)c2ccccc2Sc2cc(Nc3ccc(C#N)nn3)ccc21 [6-((10-(But-2-yn-1-yl)-11-oxo-10,11-dihydrodibenzo[b,f][1,4]thiazepin-7-yl)amino)pyridazine-3-carbonitrile] | < 500
3 | CC#CCN1C(=O)c2ccccc2Sc2cc(Nc3ncnc(Cl)n3)ccc21 [10-(But-2-yn-1-yl)-7-((4-chloro-1,3,5-triazin-2-yl)amino)dibenzo[b,f][1,4]thiazepin-11 (10H)-one] | 1000 to 5000
4 | CC#CCN1C(=O)c2ccccc2Sc2cc(Nc3cccnc3C#N)ccc21 [3-((10-(But-2-yn-1-yl)-11-oxo-10,11-dihydrodibenzo[b,f][1,4]thiazepin-7-yl)amino) picolinonitrile] | < 500

The next lines start with the values.

Row | IC50 [nM] | SMILES
5 | < 500 | CC#CCN1C(=O)c2ccccc2Sc2cc(Nc3ccc(C)nn3)ccc21 [10-(But-2-yn-1-yl)-7-((6-methylpyridazin-3-yl)amino)dibenzo[b,f][1,4]thiazepin-11 (10H)-one]
6 | 1000 to 5000 | CC#CCN1C(=O)c2ccc(C#N)cc2Sc2cc(Nc3cccnn3)ccc21 [10-(But-2-yn-1-yl)-11-oxo-7-(pyridazin-3-ylamino)-10,11-dihydrodibenzo[b,f][1,4]thiazepine-3-carbonitrile]
7 | < 500 | CC#CCN1C(=O)c2ccccc2Sc2cc(Nc3cccnn3)ccc21 [10-(But-2-yn-1-yl)-7-(pyridazin-3-ylamino)dibenzo[b,f][1,4]thiazepin-11 (10H)-one]
8 | < 500 | CCC/C=C/CN1C(=O)c2ccccc2Sc2cc(Nc3nccnc3C)ccc21 [(E)-10-(Hex-2-en-1-yl)-7-((3-methylpyrazin-2-yl)amino)dibenzo[b,f][1,4]thiazepin-11 (10H)-one]

Same assay, conditions: Homo sapiens, HCT-116; Table 9; HCT116, 72 hours; read-out: Activity

Row | IC50 [nM] | SMILES
9 | < 500 | COc1ccc(C(=O)Nc2ccc3c(c2)Cc2ccccc2C(=O)N3CC#CC(F)(F)F)cc1 [Table 9: —CH2CCCF3; 4-MeOPh; CH2, 4-Methoxy-N-(6-oxo-5-(4,4,4-trifluorobut-2-yn-1-yl)-6, 11-dihydro-5H-dibenzo[b,e]azepin-2-yl)benzamide]

Same assay, conditions: Homo sapiens, HCT-116; read-out: IC50s (cellular activity of MM017 derivatives)

Row | IC50 [nM] | SMILES
10 | 2100 | COCCN1C(=O)c2ccccc2Sc2cc(NC(=O)c3ccc(OC(F)(F)F)cc3)ccc21 [compound 4]

Same assay, conditions: Table 1; HCT116, 72 hours; read-out: Activity

Row | IC50 [nM] | SMILES
11 | < 500 | CC#CCN1C(=O)c2ccc(Cl)cc2Sc2cc(NC(=O)N3CCC3)ccc21

Same assay, conditions: Table 2; HCT116, 72 hours; read-out: Activity

Row | IC50 [nM] | SMILES
12 | < 500 | CC#CCN1C(=O)c2ccc(Cl)cc2Sc2cc(NC(=S)N3CCC3)ccc21

Same assay, conditions: Table 5; HCT116, 72 hours; read-out: Activity

Row | IC50 [nM] | SMILES
13 | < 500 | Cc1ccnnc1Nc1cnc2c(c1)Sc1ccccc1C(=O)N2CC#CCl
14 | < 500 | CC#CCN1C(=O)c2ccccc2Sc2cc(Nc3ncccc3C)cnc21
15 | < 500 | C#CCN1C(=O)c2ccccc2Sc2cc(Nc3ncc(C)cc3C)ccc21
16 | < 500 | Cc1ccc(F)c(Nc2cnc3c(c2)Sc2ccccc2C(=O)N3CC#CCl)n1

Row | SMILES | IC50 [nM]
17 | CCC/C=C/CN1C(=O)c2ccccc2Sc2cc(Nc3cc(C(F)(F)F)ccn3)ccc21 [(I)-10-(Hex-2-en-1-yl)-7-((4-(trifluoromethyl)pyridin-2-yl)amino)dibenzo[b,f][1,4]thiazepin-11 (10H)-one] | 1000 to 5000
18 | CC=CCN1C(=O)c2ccccc2Sc2cc(Nc3ncccc3C)ccc21 | < 500

Same assay, conditions: Table 6; HCT116, 72 hours; read-out: Activity

Row | SMILES | IC50 [nM]
19 | COCC1CC(Nc2ccc3c(c2)Sc2ccccc2C(=O)N3CC#CCl)C1 (stereo not shown) | < 500
20 | CC#CCN1C(=O)c2ccccc2Sc2cc(NC3CCCOC3)cnc21 (stereo not shown) | < 500
21 | CC#CCN1C(=O)c2ccccc2Cc2cc(NC3COC3)ccc21 | < 500
22 | O=C1c2ccccc2Sc2cc(NC3CC4(COC4)C3)ccc2N1CC#CCl | < 500

Other lines, results leading:

Row | IC50 [nM] | SMILES
23 | < 500 | C#CCN1C(=O)c2ccccc2Sc2cc(NC3CC(O)C3)ccc21 (stereo not shown) [Table 6: —CH2CCH; 3-HOcBu; CH/CH; S]
24 | < 500 | COC1CC(Nc2ccc3c(c2)Sc2ccccc2C(=O)N3CC#CCl)C1 (stereo not shown) [Table 6: —CH2CCCl; 3-MeOcBu; CH/CH; S]
25 | < 500 | C#CCN1C(=O)c2ccccc2Sc2cc(NC3COC3)cnc21 [Table 6: —CH2CCH; oxetan-3-yl; CH/N; S]

Same assay, conditions: Table 7; cell viability assay, CellTiter-Glo, 72 hours; scaffold drawing 42 with R^2, R^3, X/Y, Z; read-out: Activity

Row | IC50 [nM] | SMILES
26 | < 500 | COCCN1C(=O)c2ccccc2Sc2cc(NC(=O)c3cccc(CCC#N)c3)ccc21 [—(CH2)2OMe; 3-(2′-CNEt)Ph; CH/CH; S]
27 | < 500 | COCCN1C(=O)c2ccccc2Sc2cc(NC(=O)c3ccc(OC)cc3)ccc21 [—(CH2)2OMe; 4-MeOPh; CH/CH; S]
28 | < 500 | COCCN1C(=O)c2ccccc2Sc2cc(NC(=O)c3cccc(OC)c3)ccc21 [—(CH2)2OMe; 3-MeOPh; CH/CH; S]
29 | 1000 to 5000 | COCCN1C(=O)c2ccccc2Sc2cc(NC(=O)c3ccno3)ccc21 [—(CH2)2OMe; isoxazol-5-yl; CH/CH; S]
30 | 1000 to 5000 | COCCN1C(=O)c2ccccc2Sc2cc(NC(=O)c3cccc(F)c3)ccc21 [—(CH2)2OMe; 3-FPh; CH/CH; S]

Same assay, conditions: Table 8; analogs of scaffold drawing 43 defined by R^2, R^3, X/Y, W; read-out: Activity (IC50 class, cell viability assay)

Row | SMILES | IC50 [nM]
31 | C#CCN1C(=O)c2ccccc2Sc2cc(NC(=O)C3CC4(CC(=NO)C4)C3)ccc21 (stereo not shown) | < 500
32 | O=C(Nc1cnc2c(c1)Sc1ccccc1C(=O)N2CC#CC1CC1)C1CC2(COC2)C1 | < 500
33 | CC#CCN1C(=O)c2ccccc2Sc2cc(NC(=O)C34CC(O)(C3)C4)cnc21 | < 500
34 | CC#CCN1C(=O)c2ccccc2Sc2cc(NC(=O)C34CC(C#N)(C3)C4)cnc21 | < 500
35 | CON=C1CC2(C1)CC(C(=O)Nc1cnc3c(c1)Sc1cc(Cl)ccc1C(=O)N3CC#CCl)C2 (stereo not shown) | < 500
36 | O=C1c2cc(F)ccc2Sc2cc(NC(=O)C34CC(O)(C3)C4)cnc2N1CC#CC1CC1 | < 500
37 | C#CCN1C(=O)c2cc(F)ccc2Sc2cc(NC(=O)C3CC4(CC(=NO)C4)C3)ccc21 (stereo not shown) | < 500
38 | CC#CCN1C(=O)c2ccc(Cl)cc2Sc2cc(NC(=O)C3CC4(CC(O)C4)C3)ccc21 (stereo not shown) | < 500
39 | CON=C1CC2(C1)CC(C(=O)Nc1cnc3c(c1)Sc1ccccc1C(=O)N3CC#CCl)C2 (stereo not shown) | < 500

Other lines, results leading:

Row | IC50 [nM] | SMILES
40 | < 500 | CC#CCN1C(=O)c2ccc(Cl)cc2Sc2cc(NC(=O)[C@@H]3C[C@H]3C(=O)OC)ccc21 (relative stereo) [—CH2CCMe; trans-2-MeO2C-cPr; CCl/CH; CH]
41 | < 500 | CC#CCN1C(=O)c2ccccc2Sc2cc(NC(=O)C3CC(OC)C3)ccc21 (stereo not drawn) [—CH2CCMe; cis-3-MeOcBu; CH/CH; CH]
42 | < 500 | CC#CCN1C(=O)c2cc(F)ccc2Sc2cc(NC(=O)[C@H]3C[C@@H](OC)C3)ccc21 [—CH2CCMe; cis-3-MeOcBu; CH/CF; CH]
43 | < 500 | CC#CCN1C(=O)c2cc(F)ccc2Sc2cc(NC(=O)c3cccc(OC)c3)ccc21 [—CH2CCMe; 3-MeOPh; CH/CF; CH]
44 | < 500 | CC#CCN1C(=O)c2ccccc2Sc2cc(NC(=O)c3ccc(OCF)cc3)ccc21 [—CH2CCMe; 4-FH2COPh; CH/CH; CH]
45 | < 500 | CC#CCN1C(=O)c2ccccc2Sc2cc(NC(=O)C3COC3)ccc21 [—CH2CCMe; oxetan-3-yl; CH/CH; CH]
46 | < 500 | COCC1CC1C(=O)Nc1cnc2c(c1)Sc1ccccc1C(=O)N2CC#CC1CC1 (racemic) [—CH2CC^cPr; trans-2-MeOCH2-cPr; CH/CH; N]
47 | < 500 | CC#CCN1C(=O)c2ccc(Cl)cc2Sc2cc(NC(=O)[C@H]3C[C@H](O)C3)cnc21 [—CH2CCMe; trans-3-OH-cBu; CCl/CH; N]
48 | < 500 | CC#CCN1C(=O)c2ccc(F)cc2Sc2cc(NC(=O)[C@H]3C[C@H](OC)C3)cnc21 [—CH2CCMe; trans-3-MeOcBu; CF/CH; N]
49 | < 500 | CC#CCN1C(=O)c2cc(F)ccc2Sc2cc(NC(=O)C3CC(COC)C3)cnc21 (stereo not shown) [—CH2CCMe; 3-MeOCH2-cBu; CH/CF; N]

Same assay, conditions: Table 9; HCT116, 72 hours; read-out: Activity

Row | SMILES | IC50 [nM]
50 | COc1ccc(C(=O)Nc2ccc3c(c2)C(C)(O)c2ccccc2C(=O)N3CC#CCl)cn1 (stereo not shown) | < 500
51 | CC#CCN1C(=O)c2ccccc2C(C)c2cc(NC(=O)C3CCOC3)ccc21 (stereo not shown) | < 500
52 | CC1c2ccccc2C(=O)N(CC#CC2CC2)c2ccc(NC(=O)CC3COC3)cc21 (stereo not shown) | < 500

Second part, the compound after the results:

Row | IC50 [nM] | SMILES
53 | < 500 | CO[C@H]1C[C@@H](C(=O)Nc2ccc3c(c2)C(C#N)c2ccccc2C(=O)N3CC#CC2CC2)C1 (stereo partly drawn) [Table 9: —CH2CCºPr; cis-3-MeOcBu; CHCN]
54 | < 500 | N#CC1c2ccccc2C(=O)N(CC#CC2CC2)c2ccc(NC(=O)[C@H]3C[C@@H]3CO)cc21 (relative stereo)
55 | < 500 | CC#CCN1C(=O)c2ccccc2C(C)c2cc(NC(=O)C(C)CCOC)ccc21 (stereo not shown) [Table 9: —CH2CCMe; MeO(CH2)2CHMe-; CHMe]
56 | < 500 | COCCNC(=O)Nc1ccc2c(c1)C(C)c1ccccc1C(=O)N2CC#CC1CC1 (stereo not shown) [Table 9: —CH2CC^cPr; NH(CH2)2OMe; CHMe]
57 | < 500 | CC#CCN1C(=O)c2ccccc2Cc2cc(NC(=O)[C@H]3C[C@H](OC)C3)ccc21 [Table 9: —CH2CCMe; trans-3-MeOcBu; CH2]
58 | < 500 | COCC1CC1C(=O)Nc1ccc2c(c1)C(C)(O)c1ccccc1C(=O)N2CC#CC1CC1 (racemic)
59 | < 500 | CC#CCN1C(=O)c2ccccc2C(C)c2cc(NC(=O)[C@H]3C[C@H](O)C3)ccc21 (stereo partly drawn) [Table 9: —CH2CCMe; trans-3-OH-cBu; CHMe]
60 | < 500 | CO[C@H]1C[C@H](C(=O)Nc2ccc3c(c2)Cc2ccccc2C(=O)N3CC#CC2CC2)C1 [Table 9: —CH2CCCPr; trans-3-MeOcBu; CH2]

Same assay, conditions: cell viability assay; Table 10 analogs of scaffold drawing 45 defined by R2, R3, X/Y, W; read-out: Activity

Row | SMILES | IC50 [nM]
61 | COC12CC(C(=O)Nc3cnc4c(c3)Sc3ccccc3C(=O)N4CC#CCF)(C1)C2 | < 500
62 | CC#CCN1C(=O)c2ccccc2Sc2cc(NC(=O)C34CC(OC)(C3)C4)ccc21 | < 500

The next lines start with the values.

Row | IC50 [nM] | SMILES
63 | < 500 | CC#CCN1C(=O)c2ccccc2Sc2cc(NC(=O)C3CC(OC)C3)ccc21 (stereo not drawn) [—CH2CCMe; cis-3-MeOcBu; CH/CH; CH]
64 | < 500 | CC#CCN1C(=O)c2ccc(F)cc2Sc2cc(NC(=O)[C@H]3C[C@H](OC)C3)cnc21 [—CH2CCMe; trans-3-MeOcBu; CF/CH; N]
